Legend:
[1] = monotherapy, dose escalation phase 1; cited from earlier work
[2] = test system: HFFF2 fibroblasts; assay: TGF-β1-induced myofibroblast differentiation of fibroblasts (Western blotting, immunofluorescence, Q-RT-PCR, collagen gel contraction); format: cell-based, human
Procedure: Human NSCLC cell line H441, HNSCC SCC25, murine cancer cell line TC-1 (lung), MC38 (colon) and human fetal foreskin fibroblasts HFFF2 were purchased from European Collection of Cell Cultures (Public Health England) or ATCC; HNSCC 5PT [32] were provided by l. Mackenzie (Queen Mary University of London, UK). HEK-293T cells and IMR90 lung fibroblasts were provided by Jesus Gil (Imperial College, London, UK). SCC25 were grown in Ham's F12:DMEM (1:1 ratio) medium with 10% FBS (Calbiochem) and 292 μg/ml L-Glutamine. 5PT were cultured in keratinocyte growth medium. HEK-293T, H441, MC38, HFFF2, IMR90 and primary fibroblasts were grown in DMEM supplemented with 10% FBS and 292 μg/ml L-Glutamine. Primary fibroblasts were isolated as previously used at early passage (p1-10). C57BL/6 murine normal lung and colon fibroblasts (MLF and MCF respectively) were grown at 3% oxygen. TC-1 were cultured in RPMI supplemented with 10% FBS and 292 μg/ml L-Glutamine. All cell cultures were routinely tested for mycoplasma contamination. All cells were cultured using standard cell culture plates/flasks (Corning). HFFF2 or IMR90 cells were transfected with 25 μM On-Target pool siRNA (Thermo Scientific/Dharmacon) using Oligofectamine reagent (Life Technologies) as described. Stable knockdown was performed using retro/lentiviral mediated transduction of shRNA plasmids, as previously described followed by cell selection using 1 μg/ml puromycin for 5-7 days. NOX4-inducible HEK-293 cells (kindly provided by Vincent Jaquet) were treated with 1 μg/ml doxycycline. Wild type and mutant (C2991L) ATM over-expression was carried out transfecting HFFF2 with Viafect (Promega) according to manufacturer's instructions and selected for 10 days with 4 mg/ml G418. p-Retrosuper-shATM (ATM #1:912) and pCDNA3.1-Flag-mut-ATM (C2991L; pTP1625 clone) were kindly provided by Yosef Shiloh and Tanya Paull respectively. pLKO.1 murine shATM (TRCN0000012643) and pCDNA3.1-Flag-wt-ATM (31985) were purchased from Sigma and Addgene respectively. 2 ng/ml TGF-3 (TGF-β1; R&D Systems; for 3 days) was used to induce myofibroblast differentiation. 10 ng/ml IL-1pR (R&D Systems) for 72 hours was used to induce iCAF differentiation. […] All the inhibitors were resuspended in DMSO. To trigger DDR activation and/or cell stress HFFF2 were either irradiated with 2-100Gy using 350Kv X-Ray Irradiation System (Faxitron), or treated with 100 ng/ml Neocarzinostatin for 2 hours (NCS; Sigma), with 2-10 mM H2O2(Fisher Scientific) or with 5 μg/ml Cisplatin (Sandoz) for 30 minutes.
5×10^3 HFFF2 were plated on permanox chamber slides (Thermo Scientific) and treated as described in the figure legends. Immunostaining was performed as previously. DAPI was used as nuclear counterstain and coverslips were mounted using fluorescent mounting solution (Dako). Images were taken using an Olympus IX81 fluorescence microscope and Xcellence program. DNA Damage foci were quantified from at least 8 non-overlapping FoV with ~300 cells in total per condition. Kruskall-Wallis statistical test was used to indicate the presence of a different distribution per time points in each group of foci. For collagen 1A1 deposition, 5×10^3 HFFF2 or MLF were seeded into chamber slides and treated with TGF-β1±inhibitors for a week (treated day 1 & day 4). Decellularisation was performed using 0.25M NH4OH in 50 mM Tris at 37° C. for 30 minutes and slides fixed with ice-cold 100% methanol at −20° C. followed by a blocking step. The remainderwas performed as previously described. SMA and Collagen 1A1 quantification was performed using Fiji. High resolution imaging of mouse tumours was carried out using an Axioscan.Z1 scanner (Zeiss).

[3] = CCT241533 1.5 μM + TGF-β1 72 hours, HFFF2
[4] = CCT241533 1.5 μM + TGF-β1, HFFF2

SMILES | adverse effects [1] | TGF-β1-dependent FnEDA expression [2, 3] | TGF-β1-dependent SMA expression [2, 3] | SMA-positive stress fiber formation [2, 4] | collagen deposition [2, 4]
CC(C)n1c(=O)n(C)c2cnc3cc(F)c(-c4ccc(OCCCN5CCCCC5)nc4)cc3c21 [AZD1390] | not yet reporting to be associated with adverse effects |  |  |  | 
COc1cc2nc(-c3cc(F)ccc3O)nc(N[C@@H]3CNC[C@H]3C(C)(C)O)c2cc1OC [CCT241533] |  | suppresses | suppresses | suppresses | suppresses

Source: patent publication US20260256799A1, “INHIBITORS FOR TREATING SOLID TUMOURS” (UNIVERSITY OF SOUTHAMPTON, priority 2023, published 2026)
